Here are results for six substances from patent US8613931B2, “Compounds for treating beta-amyloidoses” (Affiris AG, priority 2008, dated 2013).

Square brackets hold non-standard residues; d marks the D form. Ends that are not written are not given here. pGlu = O=C1CC[C@@H](C(=O)O)N1

Test [1] deals with monoclonal antibody MV-003. Put plainly: In vitro inhibition assay (ELISA), MV-003 binding to original epitope. The arrangement: species or system BalbC mice. The note with it: OD at 10 μg peptide compared to original peptide. How it is done:
2. In vitro inhibition assay (ELISA)
Different amounts of peptides (concentrations ranging from 10 μg to 0.08 μg; serial dilutions), derived from Phage Display were incubated with the monoclonal antibody that was used for the screening procedure. Peptides diminishing subsequent binding of the antibody to the original epitope coated on ELISA plates were considered as inhibiting in this assay.
In general terms: ELISA stands for enzyme-linked immunosorbent assay.

Test [2] deals with full length and/or truncated and modified forms of Aβ. Description: In vivo characterisation of mimotopes: detection of Aβ/truncated/modified forms. The arrangement: species or system C57/bl6 mice; key: +: All peptides listed in Table 5 mount specific immune reactions against full length and/or truncated and modified forms of Aβ or fragments thereof. To be noted: MV-003 derived mimotopes; mimotope vaccination. The method, then:
(§1) Inhibiting as well as non-inhibiting peptides were coupled to KLH and injected into mice (wildtype C57/Bl6 mice; subcutaneous injection into the flank) together with an appropriate adjuvant (aluminium hydroxide). Animals were vaccinated 3-6 times in biweekly intervals and sera were taken biweekly as well. Titers to injected peptides, as well as to an irrelevant peptide were determined with every serum. Furthermore, titers against the recombinant human Aβ protein, and against original peptides were determined respectively. In general sera were analysed by reaction against peptides coupled to Bovine Serum Albumin (BSA) and recombinant full length proteins which were immobilised on ELISA plates. Titers were determined using anti mouse IgG specific antibodies. For detailed results see FIGS. 6, 7 and 8 respectively.
Female C57/bl6 mice, 5-6 mice per group, were subcutaneously immunized with 30 μg peptide coupled to KLH. Control groups were administered original epitope-KLH conjugates respectively. As adjuvant alum was used (always 1 mg per mouse). […] The in vitro ELISA assay to determine the antibody titer was performed with sera of single mice after each vaccination in a two week interval (see FIGS. 6 and 7 respectively). The wells of the ELISA plate were coated with mimotope-BSA conjugate and an irrelevant peptide-BSA conjugate (negative control). The positive control was performed by reaction of the parental antibody with the respective mimotope-BSA conjugate. The detection was performed with anti-mouse IgG. Additionally, recombinant proteins were immobilised on ELISA plates and sera reacted accordingly. FIGS. 6 to 8 show representative examples for assays used to characterise mimotopes in vivo.

Test [3] concerns Tg2576 AD mouse model. Put plainly: Area occupied by amyloid plaques in Tg2576 mice after mimotope vaccination. In kind it is in vivo. To be noted: Tg2576, 6 s.c. injections at monthly intervals, peptide-KLH conjugate with ALUM.
The subject of test [4] is p4371. Put plainly: Mimotope vaccination, serum reactivity against p4371. In kind it is in vivo, C57/bl6 mice. The note with it: sera of mice s.c. immunized with 30 μg peptide coupled to KLH, alum. The method, then:
as §1
(§2) Female C57/bl6 mice, 5-6 mice per group, were subcutaneously immunized with 30 μg peptide coupled to KLH. Control groups were administered original epitope-KLH conjugates respectively. As adjuvant alum was used (always 1 mg per mouse). […] The in vitro ELISA assay to determine the antibody titer was performed with sera of single mice after each vaccination in a two week interval (see FIGS. 6 and 7 respectively). The wells of the ELISA plate were coated with mimotope-BSA conjugate and an irrelevant peptide-BSA conjugate (negative control). […]

Test [5] relates to monoclonal antibody MV-003. Put plainly: In vitro binding assay (ELISA), parental antibody MV-003. The arrangement: species or system BalbC mice. The note with it: peptide-BSA on ELISA plate; OD halfmax, dilution factor 1:X of parental AB MV-003. The method, then: 1. In vitro binding assay (ELISA)
Peptides derived from Phage Display as well as variants thereof were coupled to BSA and bound to ELISA plates (1 μM; as indicated in the respective figures) and subsequently incubated with the monoclonal antibody that was used for the screening procedure to analyse binding capacity of identified peptides.

Test [6] has as its system p4373. Description: Mimotope vaccination, serum reactivity against p4373. In kind it is in vivo, C57/bl6 mice. The note with it: sera of mice s.c. immunized with 30 μg peptide coupled to KLH, alum. The method, then: as §1, §2

For the substance IRYDAPLC [p4397], the “Inhibition Capacity” value in test [1] is 1 (Weaker than original epitope (OD of 10 μg peptide below 12 times of original peptide)). Besides, the “Detection of Aβ/truncated/modified forms” value in test [2] is given as “+”.

IRWDTPC [p4395]: in test [1], the “Inhibition Capacity” value was 1 (Weaker than original epitope (OD of 10 μg peptide below 12 times of original peptide)). In test [3] (mAb 3A5 staining, control group 0.35%), the “average area occupied by amyloid plaques” value is reported as 0.21%. Further, in test [3] (versus control group), the “reduction of area occupied by amyloid plaques following mimotope treatment” value is listed as 38%. Besides, the “Detection of Aβ/truncated/modified forms” value in test [2] is listed as “+”.

On to p(E)FRHDS-C ([pGlu]FRHDSC) [p4373], for which the “immune response against p4371” value in test [4] was “mount relevant titers”.

IRWDTSLC [p4728]: the “Binding Capacity” value in test [5] is 3 (strong binding :>60000). Moreover, the “Inhibition Capacity” value in test [1] is reported as 2 (strong inhibition (as original epitope; OD of 10 μg peptide below 5 times of original peptide)).

Turning to IRWDQPC [p4756], the “Binding Capacity” value in test [5] is on record as 3 (strong binding :>60000). Moreover, the “Inhibition Capacity” value in test [1] is 1 (Weaker than original epitope (OD of 10 μg peptide below 12 times of original peptide)).

EFRHDS-C (EFRHDSC) [p4371]: the “immune response against p4373” value in test [6] is on record as “mount relevant titers”.
